Values belong to the compound of their own block, whether it stands above or below them.
How the values were obtained:
[1] = Inhibition of pSLP76 in human PBMC cells incubated for 4 hrs by HTRF method; format: cell-based
[2] = Effect on IL-2 secretion in human T cells by ELISA method; format: functional, cell-based; conditions: T-cell
[3] = Effect on IFN-gamma secretion in human T cells by ELISA method; format: functional, cell-based; conditions: T-cell
[4] = target: T1, Mitogen-activated protein kinase kinase kinase kinase 3 (Homo sapiens, UniProt Q8IVH8); test: Inhibition of GLK (unknown origin)
T1 sequence (Q8IVH8 whole entry): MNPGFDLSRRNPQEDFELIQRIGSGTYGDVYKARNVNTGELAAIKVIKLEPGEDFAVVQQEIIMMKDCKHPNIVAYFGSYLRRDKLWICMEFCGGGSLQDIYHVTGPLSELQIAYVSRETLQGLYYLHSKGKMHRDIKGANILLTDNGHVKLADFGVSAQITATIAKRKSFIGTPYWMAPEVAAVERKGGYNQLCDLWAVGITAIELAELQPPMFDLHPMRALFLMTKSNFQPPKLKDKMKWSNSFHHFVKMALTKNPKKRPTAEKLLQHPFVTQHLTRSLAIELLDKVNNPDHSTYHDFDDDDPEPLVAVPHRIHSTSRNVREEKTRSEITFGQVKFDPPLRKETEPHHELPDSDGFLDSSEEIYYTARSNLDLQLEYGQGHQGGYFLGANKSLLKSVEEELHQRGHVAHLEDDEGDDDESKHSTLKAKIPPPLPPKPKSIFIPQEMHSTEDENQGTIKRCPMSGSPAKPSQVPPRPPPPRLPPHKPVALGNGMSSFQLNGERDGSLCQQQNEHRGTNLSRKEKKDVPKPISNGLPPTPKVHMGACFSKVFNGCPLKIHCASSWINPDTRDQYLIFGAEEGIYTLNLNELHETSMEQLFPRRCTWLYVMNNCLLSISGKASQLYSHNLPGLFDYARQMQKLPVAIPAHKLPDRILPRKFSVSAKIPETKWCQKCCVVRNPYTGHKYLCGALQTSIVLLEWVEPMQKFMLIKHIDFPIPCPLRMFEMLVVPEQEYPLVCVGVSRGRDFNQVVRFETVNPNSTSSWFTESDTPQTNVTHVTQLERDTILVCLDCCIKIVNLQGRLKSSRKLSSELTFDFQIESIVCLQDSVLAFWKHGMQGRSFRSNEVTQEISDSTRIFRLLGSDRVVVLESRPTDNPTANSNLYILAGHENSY

[5] = target: T2, Mitogen-activated protein kinase kinase kinase kinase 1 (Homo sapiens, UniProt Q92918); test: Inhibition of human recombinant wild type N-terminal HPK1 (1 to 346 residues) infected in insect Sf21 cells using fluorescein-PKC as substrate preincubated for 10 mins followed by substrate addition and measured after 90 mins by microplate reader based analysis; format: single protein
[6] = target: T2, Mitogen-activated protein kinase kinase kinase kinase 1; test: Inhibition of HPK1 in human PBMC cells assessed as IL-2 level pretreated for 4 hrs followed by anti-CD3/CD28 stimulation for 20 mins by HTRF method; format: cell-based
in vivo [7] = conditions: Sprague-Dawley, rat, iv, 1 mg/kg
Description: Volume of distribution in Sprague-Dawley rat at 1 mg/kg, iv

in vivo [8] = conditions: Beagle, dog, po, 2 mg/kg
Description: Half life in Beagle dog at 2 mg/kg, po

[9] = Oral bioavailability in Balb/c mouse at 10 mg/kg; format: ADME, organism-based; conditions: in vivo
[10] = Dose normalized AUC (0 to 24 hrs) in Balb/c mouse at 10 mg/kg, po; format: ADME, organism-based; conditions: in vivo
in vivo [11] = conditions: Balb/c, mouse, iv, 1 mg/kg
Description: Volume of distribution in Balb/c mouse at 1 mg/kg, iv

in vivo [12] = conditions: Beagle, dog, iv, 1 mg/kg
Description: Volume of distribution in Beagle dog at 1 mg/kg, iv

[13] = Half life in Balb/c mouse at 10 mg/kg, po; format: ADME, organism-based; conditions: in vivo
[14] = Oral bioavailability n Sprague-Dawley rat at 10 mg/kg; format: ADME, organism-based; conditions: in vivo
[15] = dog, in vivo, po, 2 mg/kg
in vivo [16] = conditions: Balb/c, mouse, plasma, iv, 1 mg/kg
Description: Clearance in Balb/c mouse plasma at 1 mg/kg, iv

[17] = Half life in Sprague-Dawley rat at 10 mg/kg, po; format: ADME, organism-based; conditions: in vivo
[18] = Dose normalized AUC (0 to 24 hrs) in Sprague-Dawley rat at 10 mg/kg, po; format: ADME, organism-based; conditions: in vivo
in vivo [19] = conditions: Sprague-Dawley, rat, plasma, iv, 1 mg/kg
Description: Clearance in Sprague-Dawley rat plasma at 1 mg/kg, iv

in vivo [20] = conditions: Beagle, dog, po, 2 mg/kg; remark: listed apart in the source
in vivo [21] = conditions: Beagle, dog, plasma, iv, 1 mg/kg
Description: Clearance in Beagle dog plasma at 1 mg/kg, iv

[22] = Clearance in Balb/c mouse plasma administered as iv dose; format: ADME, organism-based
[23] = Half life in Balb/c mouse administered as po dose; format: ADME, organism-based; conditions: in vivo
[24] = Dose normalized AUC (0 to 24 hrs) in Balb/c mouse administered as po dose; format: ADME, organism-based; conditions: in vivo
[25] = Volume of distribution in Balb/c mouse administered as iv dose; format: ADME, organism-based; conditions: in vivo
[26] = Oral bioavailability in Balb/c mouse; format: ADME, organism-based; conditions: in vivo
in vivo [27] = conditions: Sprague-Dawley, rat, plasma, iv
Description: Clearance in Sprague-Dawley rat plasma administered as iv dose

in vivo [28] = conditions: Sprague-Dawley, rat, po
Description: Oral bioavailability in Sprague-Dawley rat

in vivo [29] = conditions: Sprague-Dawley, rat, iv
Description: Volume of distribution in Sprague-Dawley rat administered as iv dose

in vivo [30] = conditions: Sprague-Dawley, rat, po; remark: listed apart in the source
Description: Half life in Sprague-Dawley rat administered as po dose

T2 sequence (Q92918 whole entry, the tested form may be a part): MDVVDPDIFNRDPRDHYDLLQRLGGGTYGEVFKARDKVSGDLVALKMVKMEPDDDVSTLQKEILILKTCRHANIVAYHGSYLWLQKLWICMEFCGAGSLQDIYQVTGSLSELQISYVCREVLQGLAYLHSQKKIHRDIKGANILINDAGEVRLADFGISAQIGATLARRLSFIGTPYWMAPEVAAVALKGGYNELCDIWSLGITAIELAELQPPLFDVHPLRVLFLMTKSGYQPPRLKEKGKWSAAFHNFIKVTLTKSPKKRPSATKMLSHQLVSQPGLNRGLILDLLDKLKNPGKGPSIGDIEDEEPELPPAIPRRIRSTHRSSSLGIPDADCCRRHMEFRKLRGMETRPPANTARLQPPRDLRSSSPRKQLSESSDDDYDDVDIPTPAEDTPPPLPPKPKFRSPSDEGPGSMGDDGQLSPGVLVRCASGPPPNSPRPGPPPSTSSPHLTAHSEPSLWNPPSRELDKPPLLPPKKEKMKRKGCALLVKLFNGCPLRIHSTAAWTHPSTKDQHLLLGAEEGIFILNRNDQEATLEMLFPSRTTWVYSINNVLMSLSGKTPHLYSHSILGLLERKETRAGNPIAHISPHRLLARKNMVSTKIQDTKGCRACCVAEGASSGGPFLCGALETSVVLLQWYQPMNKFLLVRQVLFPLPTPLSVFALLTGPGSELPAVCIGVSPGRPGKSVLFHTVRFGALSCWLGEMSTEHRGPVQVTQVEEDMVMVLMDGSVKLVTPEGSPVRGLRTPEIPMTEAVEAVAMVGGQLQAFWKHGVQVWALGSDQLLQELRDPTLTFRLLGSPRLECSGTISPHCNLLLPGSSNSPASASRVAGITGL

Structure (SMILES): COc1cc(Nc2ccc3c(n2)CN(C)C32CCOCC2)c(C(N)=O)nc1-c1cccc2c1ncn2C(F)F
IC50 [4]: 0.322 µM
IC50 [5]: < 0.00051 µM
EC50 [6]: 0.102 µM

Structure (SMILES): CN1Cc2nc(Nc3cc(C4CC4)c(-c4cccc5c4ncn5C)nc3C(N)=O)ccc2C12CCN(C1COC1)CC2
Vd (in vivo [7]): 2.25 L/kg
half-life (in vivo [8]): 6.06 h
IC50 [4]: 0.114 µM
IC50 [5]: < 0.00051 µM
bioavailability [9]: 24.6%
EC50 [6]: 0.0327 µM
AUC/dose [10]: 308.2 ng·h/mL
Vd (in vivo [11]): 1.08 L/kg
Vd (in vivo [12]): 6 L/kg
half-life [13]: 4.33 h
bioavailability [14]: 54.7%
AUC/dose [15]: 289.2 ng·h/mL
clearance (in vivo [16]): 13.2 mL/min/kg
half-life [17]: 2.61 h
AUC/dose [18]: 4502 ng·h/mL
clearance (in vivo [19]): 19.8 mL/min/kg
bioavailability (in vivo [20]): 26.3%
clearance (in vivo [21]): 14.7 mL/min/kg

Structure (SMILES): CCN1Cc2nc(Nc3cc(OC)c(-c4cccc5c4ncn5C)nc3C(N)=O)ccc2C12CCOCC2
IC50 [4]: 0.239 µM
IC50 [5]: < 0.00051 µM
EC50 [6]: 0.168 µM

Structure (SMILES): COc1cc(Nc2ccc3c(n2)CN(C)C32CCOCC2)c(C(N)=O)nc1-c1ccnc2c1ccn2C
IC50 [4]: 0.027 µM
IC50 [5]: < 0.00051 µM

Structure (SMILES): COc1cc(Nc2ccc3c(n2)CN(C)C32CCOCC2)c(C(N)=O)nc1-c1cncc2c1ccn2C
IC50 [4]: 0.095 µM
IC50 [5]: < 0.00051 µM

Continued, values first:

IC50 [1]: 0.014 µM
EC50 [2]: 0.0353 µM
EC50 [3]: 0.0222 µM
Structure (SMILES): CN(C)Cc1nc(Nc2ccc(-c3cnc4cc(F)ccn34)c3c2C(=O)NC3)ccc1C1CCOCC1

IC50 [4]: 0.162 µM
IC50 [5]: < 0.00051 µM
EC50 [6]: 0.149 µM
Structure (SMILES): COc1cc(Nc2ccc3c(n2)CN(C)C32CCCC2)c(C(N)=O)nc1-c1cccc2c1ncn2C

IC50 [4]: 0.153 µM
IC50 [5]: < 0.00051 µM
EC50 [6]: 0.0549 µM
Structure (SMILES): CN1Cc2nc(Nc3cc(OC(F)F)c(-c4cccc5c4ncn5C)nc3C(N)=O)ccc2C12CCOCC2

IC50 [4]: 0.0284 µM
IC50 [5]: 0.00064 µM
clearance [22]: 23.7 mL/min/kg
half-life [23]: 0.93 h
AUC/dose [24]: 273.3 ng·h/mL
Vd [25]: 1.08 L/kg
bioavailability [26]: 38.6%
Structure (SMILES): CN1Cc2nc(Nc3ccc(C4=CCCC(NC(=O)c5ccccc5)C4)nc3C(N)=O)ccc2C12CCOCC2 (stereo unspecified)

clearance (in vivo [27]): 32.6 mL/min/kg
IC50 [4]: 0.241 µM
IC50 [5]: < 0.00051 µM
bioavailability (in vivo [28]): 24.3%
EC50 [6]: 0.01 µM
Vd (in vivo [29]): 1.75 L/kg
half-life (in vivo [30]): 1.22 h
Structure (SMILES): COc1cc(Nc2ccc3c(n2)CN(C)C32CCOCC2)c(C(N)=O)nc1-c1cncc2c1ncn2C

Reference: ChEMBL document CHEMBL6074671, “Discovery of Pyridine-2-Carboxamides Derivatives as Potent and Selective HPK1 Inhibitors for the Treatment of Cancer” (J Med Chem, 2024)
